{"source": "patent US10596145B2", "about": "“Heterocyclic flavone derivatives, compositions, and methods related thereto” (Emory University, priority 2012, dated 2020)", "key": {"hERG": {"target": "hERG (Homo sapiens, UniProt Q12809)", "sequence (Q12809 whole entry)": "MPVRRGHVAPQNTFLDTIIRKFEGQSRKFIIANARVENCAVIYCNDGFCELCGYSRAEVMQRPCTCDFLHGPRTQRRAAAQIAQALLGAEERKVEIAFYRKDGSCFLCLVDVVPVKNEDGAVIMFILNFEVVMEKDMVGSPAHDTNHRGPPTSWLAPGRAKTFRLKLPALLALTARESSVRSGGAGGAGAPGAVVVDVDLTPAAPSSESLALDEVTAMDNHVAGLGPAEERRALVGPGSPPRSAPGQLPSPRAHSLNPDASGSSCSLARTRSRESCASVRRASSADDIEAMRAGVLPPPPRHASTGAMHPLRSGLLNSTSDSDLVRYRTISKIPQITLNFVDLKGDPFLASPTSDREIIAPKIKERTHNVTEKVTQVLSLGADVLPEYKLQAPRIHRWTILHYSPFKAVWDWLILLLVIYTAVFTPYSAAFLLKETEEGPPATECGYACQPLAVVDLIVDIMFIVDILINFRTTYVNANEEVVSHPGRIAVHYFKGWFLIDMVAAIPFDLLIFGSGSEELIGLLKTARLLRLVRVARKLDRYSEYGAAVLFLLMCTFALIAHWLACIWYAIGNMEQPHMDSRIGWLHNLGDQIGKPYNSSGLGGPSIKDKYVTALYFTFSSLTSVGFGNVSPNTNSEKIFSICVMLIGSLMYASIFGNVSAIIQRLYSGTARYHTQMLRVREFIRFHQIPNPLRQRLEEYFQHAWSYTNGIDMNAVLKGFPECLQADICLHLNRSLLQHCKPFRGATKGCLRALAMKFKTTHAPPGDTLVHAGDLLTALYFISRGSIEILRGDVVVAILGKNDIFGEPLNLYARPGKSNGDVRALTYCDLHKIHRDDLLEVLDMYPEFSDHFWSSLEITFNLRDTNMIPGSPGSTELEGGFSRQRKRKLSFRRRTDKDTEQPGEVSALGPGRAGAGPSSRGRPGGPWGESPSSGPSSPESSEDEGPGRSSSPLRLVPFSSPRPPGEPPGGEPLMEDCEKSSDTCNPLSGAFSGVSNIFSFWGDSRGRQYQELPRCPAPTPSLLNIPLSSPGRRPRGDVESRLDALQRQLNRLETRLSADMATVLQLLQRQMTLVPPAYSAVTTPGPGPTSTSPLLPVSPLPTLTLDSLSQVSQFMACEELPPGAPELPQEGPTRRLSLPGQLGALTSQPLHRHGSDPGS", "experiment": "hERG inhibition assay", "protocol": "(§1) At 30 μM, the inhibition patterns contained similar trends. To test the possible cardiovascular toxicity, hERG inhibition triggered by compound o was examined."}, "CYP1A2": {"target": "T1, CYP1A2 (Homo sapiens, UniProt P05177)", "T1 sequence (P05177 1-516)": "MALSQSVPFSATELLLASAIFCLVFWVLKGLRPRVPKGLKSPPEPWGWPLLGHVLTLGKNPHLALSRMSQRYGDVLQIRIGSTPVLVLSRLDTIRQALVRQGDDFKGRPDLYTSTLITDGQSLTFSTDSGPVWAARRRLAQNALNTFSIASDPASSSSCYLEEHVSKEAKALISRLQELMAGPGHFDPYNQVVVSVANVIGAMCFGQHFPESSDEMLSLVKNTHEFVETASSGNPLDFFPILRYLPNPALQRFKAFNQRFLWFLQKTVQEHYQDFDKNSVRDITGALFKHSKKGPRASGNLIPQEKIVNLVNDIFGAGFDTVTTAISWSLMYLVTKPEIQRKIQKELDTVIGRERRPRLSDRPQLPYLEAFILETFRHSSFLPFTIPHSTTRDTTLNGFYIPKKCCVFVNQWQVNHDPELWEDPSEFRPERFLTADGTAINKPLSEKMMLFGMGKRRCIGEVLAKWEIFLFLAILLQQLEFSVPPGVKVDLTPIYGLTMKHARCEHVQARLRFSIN", "experiment": "CYP screen inhibition", "type": "in vitro ADME", "protocol": "as §1"}, "TrkB": {"target": "T2, TrkB (Rattus norvegicus, UniProt Q63604)", "T2 construct": "endogenous in cells; host or cells: primary cortical neurons from E17 rat embryos", "T2 sequence (Q63604 32-821)": "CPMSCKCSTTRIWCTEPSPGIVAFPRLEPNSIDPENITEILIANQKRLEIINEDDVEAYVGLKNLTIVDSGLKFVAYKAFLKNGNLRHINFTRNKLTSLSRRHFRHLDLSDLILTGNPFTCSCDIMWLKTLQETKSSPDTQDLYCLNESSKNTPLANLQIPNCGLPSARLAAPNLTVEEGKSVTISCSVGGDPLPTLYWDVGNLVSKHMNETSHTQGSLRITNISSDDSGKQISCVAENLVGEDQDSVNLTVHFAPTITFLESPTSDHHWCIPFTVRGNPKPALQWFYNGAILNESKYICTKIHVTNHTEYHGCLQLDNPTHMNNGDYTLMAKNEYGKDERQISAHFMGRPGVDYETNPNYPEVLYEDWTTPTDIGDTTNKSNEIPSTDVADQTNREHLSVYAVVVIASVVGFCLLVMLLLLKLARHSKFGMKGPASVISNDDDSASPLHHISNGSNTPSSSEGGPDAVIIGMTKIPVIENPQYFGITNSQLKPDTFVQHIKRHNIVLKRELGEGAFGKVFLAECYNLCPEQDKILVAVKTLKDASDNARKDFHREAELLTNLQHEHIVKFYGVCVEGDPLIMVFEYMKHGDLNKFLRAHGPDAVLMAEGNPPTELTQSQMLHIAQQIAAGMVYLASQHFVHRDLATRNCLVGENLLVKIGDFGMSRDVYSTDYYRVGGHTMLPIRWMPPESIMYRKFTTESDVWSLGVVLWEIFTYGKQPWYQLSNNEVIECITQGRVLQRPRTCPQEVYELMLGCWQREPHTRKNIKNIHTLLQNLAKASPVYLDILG", "experiment": "TrkB activation in primary cortical neurons (immunoblotting)", "type": "cell-based", "conditions": "500 nM, 15 min", "protocol": "Primary cortical cultures from E17 rat embryos were treated with 500 nM of various synthetic flavone derivatives for 15 min. The cell lysates (20 μg) were analyzed by the immunoblotting.\nRat primary neurons were treated with 500 nM various indicated compounds from 15 min. The neuronal lysates ([…]) were analyzed with various antibodies.\n500 nM of different synthetic compounds were added to DIV 7 neurons for 15 min. The cell lysates were analyzed by immunoblotting with indicated p-Akt 473 antibodies.\nReplacing the 3′-dimethylamino group or 4′-morpholino group was tested for TrkB agonistic activity. To compare the TrkB activation by these compounds, primary cortical cultures were prepared and treated them with 500 nM of various compounds for 15 min and collected the cell lysates. […] The p-Akt ELISA analysis results were similar to the TrkB activation pattern (FIG. 2B, lower panel)."}, "[1]": {"experiment": "In vivo pharmacokinetic studies in mice", "parameters": "species or system mouse", "conditions": "in vivo", "protocol": "For compound a, the standard dosage of 1 mg/kg via i.v. injection and 5 mg/kg for P.O. route was employed. […] Presumably, the dosage is too low for the in vivo PK assay. Thus, the doses of the tested compound o were increased. […] Moreover, the bioavailability is around 2% for compound o at a 10 mg/kg dosage.\nTwenty to thirty grams mice within the age of 6-8 weeks old were administrated with the indicated compounds i. v. or orally. At different time points (3, 10, 30, 60, 120, 240, 360 and 480 min), blood aliquots (300-400 μl) were collected in tubes coated with lithium heparin, mixed gently, then kept on ice and centrifuged at 2500×g for 15 min at 4° C., within 1 h of collection. The plasma was then harvested and kept frozen at −20° C. until further processing. For each time point, 3 mice/group were employed. The plasma samples were analyzed by HPLC."}, "C57BL/6J mice": {"test_system": "C57BL/6J mice", "experiment": "Locomotor activity assay", "type": "in vivo, mouse", "conditions": "2.5 mg/kg oral, 3 weeks", "protocol": "The above drug-treated mice were subjected locomotor activity at day 22. […] Data are presented as mean±SEM.\nLocomotor activity was assessed using an automated system (San Diego Instruments, La Jolla, Calif., USA) with photobeams that recorded ambulations (consecutive beam breaks). Drug-treated mice were placed in the locomotor chambers, and their activity was recorded for 2 h with 30 min interval."}}, "note": "Entries after “also recorded” stand apart in the source; their conditions may differ.", "data": [{"compound": "Cc1nc2ccc3c(=O)cc(-c4ccc(N5CCCC5)cc4)oc3c2[nH]1", "note": "[compound o, 2-methyl-8-(4-(pyrrolidin-1-yl)phenyl)chromeno[7,8-d]imidazol-6(1H)-one]", "values": [{"measurement": "hERG inhibition", "setting": "hERG", "value": "suboptimal; also recorded: did not possess any concentration-dependent inhibition activity of hERG"}, {"measurement": "inhibition at 3 µM", "setting": "CYP1A2", "value": "~27.3", "unit": "%"}, {"measurement": "TrkB activation (p-TrkB immunoblotting)", "setting": "TrkB", "value": "higher agonistic activity than compound m"}, {"measurement": "TrkB activation (p-TrkB immunoblotting)", "setting": "TrkB; listed as 4′-pyrrolidino-7,8-methyl-imidazole-flavone", "value": "triggers TrkB activation in primary neurons"}, {"measurement": "half-life", "setting": "[1]; C57BL/6, mouse, 3 mg/kg", "value": "~1.72", "unit": "h"}, {"measurement": "oral bioavailability", "setting": "[1]; C57BL/6, mouse, po, 10 mg/kg", "value": 2, "unit": "%"}, {"measurement": "AUC(0-t)", "setting": "[1]; mouse, 3 mg/kg", "value": "~312", "unit": "ng·h/mL"}, {"measurement": "bioavailability", "setting": "[1]; mouse, po, 10 mg/kg", "value": "~2", "unit": "%"}, {"measurement": "locomotor activity", "setting": "C57BL/6J mice", "value": "neither compound o nor p altered the motion activity"}]}]}
